The values below come from patent US7250269B2, “Composition for assaying glycoprotein” (Asahi Kasei Pharma Corporation, priority 2001, dated 2007).

In assay [1] the test system is Protease type-XXIV. Nature of the assay: Screening of globulin component-selective protease inhibitors (HSA substrate with/without γ-globulin). It is filed as biochemical, Bacillus. The settings on record: control 23.8. The text has this: Using protease type-XXIV (manufactured by Sigma-Aldrich Co.) having high reactivity with the HSA substrate solution, components that decrease the protease reaction with the above globulin substrate solutions were screened based on the HSA substrate solution.
In the R-1 proteolytic reagent, as the deoxycholic acid amide, bisgluconamidopropyldeoxycholamide was used; as the cholic acid amide, 3-[(3-cholamidopropyl)dimethvlammonio]propane sulfonic acid, 3-[(3-cholamidopropyl)dimethylammonio]-2-hydroxypropane sulfonic acid, or bisgluconamidopropylcholamide was used; as the quaternary ammonium salt, benzyltriethylan chloride or benzyltri-n-butylammonium chloride was used; and as quatemary ammonium salt-type cationic surfactant, lauryltrimethylammonium chloride or lauryldimethylamine oxide was used.
• 1. HSA substrate solution: Albumin Human: 40 mg/ml, GA %=10.5% [manufactured by Wako Pure Chemical Industries, Ltd., the albumin concentration in the substrate solution was assayed using an albumin assay kit (albumin II-HA Test Wako; manufactured by Wako Pure Chemical Industries, Ltd.). GA % was assayed using a glycated albumin analyzer (GAA-2000, manufactured by ARKRAY, Inc.). • 2. γ-globulin addition substrate solution, 17.0 mg/ml of γ-globulin [γ-Globulins Human (manufactured by Sigma-Aldrich Co.), Fructosamine value=34 μM] was added to the above HSA substrate solution. <Reaction Procedure>
Absorbances at a wavelength of 546 nm were measured before and after the addition of R-2. The difference of the two measurements was regarded as the absorbance change. The same procedure was conducted using distilled water instead of the substrate to prepare a blank sample. In addition, a reaction solution without the addition of the globulin-selective protease inhibitor was used as a control.
ΔA (HSA) was calculated by subtracting the absorbance change of the blank sample from the absorbance change obtained for the HSA substrate solution. ΔA(+γ-globulin) was calculated by subtracting the absorbance change of the blank sample from the absorbance change obtained for the substrate solution to which γ-globulin was added. Effect of γ-globulin addition=(ΔA(+γ-globulin)−ΔA(HSA))/ΔA(HSA)×100(%)

For assay [2], the system named is Protease type-XXIV. Nature of the assay: Screening of globulin component-selective protease inhibitors using Hb substrate solution. The settings on record: Hb substrate solution instead of HSA. It is filed as biochemical, Bacillus. How it is done:
The same measurement was conducted using the Hb substrate solution instead of the HSA substrate solution, provided that when the Hb substrate solution was used, proteins were removed using trichloroacetic acid after the reaction with R-1, then the residue was neutralized and R-2 was added.

Assay [3] concerns the target Fusarium oxysporum IFO-9972 fructosyl amino acid oxidase (FOD), mutant with 372nd lysine of SEQ ID NO: 1 replaced with alanine (Fusarium oxysporum, UniProt X0D315, K373A). Description: Substrate specificity of mutant FOD, Table 6 (372nd lysine replaced with alanine). The format is biochemical. To be noted: for Kcat: substrate glycated amino acid. How it is done: (§1) <<Method for Measuring Activity of Enzyme Reacting with Glycated Amino Acid>>
(§2) <Composition of Reaction Solution>
(§3) The glycated amino acid substrate specificity of FOD-mutated recombinant contained in the cell extract prepared in Example 16 was measured using the above-mentioned FOD enzyme activity measuring method. As a result, two mutants of which the reactivity with glycated valine is less than 1/1,000 the reactivity with glycated lysine were identified among candidate strains. These were regarded as the target mutants.
(§4) To observe the effect of replacement with other amino acids at the mutated amino acid site identified in Example 19, the site-directed mutagenesis according to the method of Kunkel et al. was carried out. Synthesis of an oligonucleotide having the base sequence of 1-27 in the sequence table Sequence ID No. 7 was consigned to an outside source (BEX Co., Ltd.). The oligonucleotide was subjected to the site-directed mutagenesis using the Mutan-K kit (manufactured by Takara Shuzo Co., Ltd.) according to the manual attached to the kit. The mutant gene obtained was incorporated again into the expression plasmid pTV119N, introduced into Escherichia coli host, and cultured at 30° C. for 16 hours in a 3.7% BHI liquid medium containing 50 μg/ml of ampicillin and 1 mM of IPTG to produce mutant FOD protein.

The target of assay [4] is Fusarium oxysporum IFO-9972 fructosyl amino acid oxidase (FOD), mutant FOD-V, 372nd lysine of SEQ ID NO: 1 replaced with valine, SEQ ID NO: 4 (Fusarium oxysporum, UniProt X0D315, K373V). Description: Substrate specificity of mutant FOD-V, Table 6 (372nd lysine replaced with valine). It is filed as biochemical. The settings on record: for Kcat: substrate glycated amino acid. How it is done:
as §1, §2, §3, §4
(§5) The mutant obtained by replacing the lysine with tryptophan was named FOD-W, the expression plasmid producing the FOD-W was named pcmFOD3, the mutant obtained by replacing the lysine with methionine was named FOD-M, the expression plasmid producing the FOD-M was named pcmFOD4, the mutant obtained by replacing the lysine with valine was named FOD-V, and the expression plasmid producing the FOD-V was named pcmFOD5.

For assay [5], the target named is Fusarium oxysporum IFO-9972 fructosyl amino acid oxidase (FOD), wild type (372nd lysine), SEQ ID NO: 1 (Fusarium oxysporum, UniProt X0D315). Description: Substrate specificity of FOD, Table 6 (372nd amino acid Lysine, wild type). The format is biochemical. To be noted: for Kcat: substrate glycated amino acid. Here is the method: as §1, §2, §3, §4
The target in assay [6] is Fusarium oxysporum IFO-9972 fructosyl amino acid oxidase (FOD), mutant with 372nd lysine of SEQ ID NO: 1 replaced with threonine (Fusarium oxysporum, UniProt X0D315, K373T). Description: Substrate specificity of mutant FOD, Table 6 (372nd lysine replaced with threonine). The format is biochemical. To be noted: for Kcat: substrate glycated amino acid. Here is the method:
as §1, §2, §3, §4

Assay [7] concerns the target Fusarium oxysporum IFO-9972 fructosyl amino acid oxidase (FOD), mutant with 372nd lysine of SEQ ID NO: 1 replaced with serine (Fusarium oxysporum, UniProt X0D315, K373S). Nature of the assay: Substrate specificity of mutant FOD, Table 6 (372nd lysine replaced with serine). The format is biochemical. The settings on record: for Kcat: substrate glycated amino acid. How it is done: as §1, §2, §3, §4

The target in assay [8] is Fusarium oxysporum IFO-9972 fructosyl amino acid oxidase (FOD), mutant with 372nd lysine of SEQ ID NO: 1 replaced with arginine (Fusarium oxysporum, UniProt X0D315, K373R). Nature of the assay: Substrate specificity of mutant FOD, Table 6 (372nd lysine replaced with arginine). The format is biochemical. The settings on record: for Kcat: substrate glycated amino acid. Here is the method:
as §1, §2, §3
The base sequences of the mutant FOD genes obtained in Example 18 were determined according to the dideoxy method.
as §4

The target in assay [9] is Fusarium oxysporum IFO-9972 fructosyl amino acid oxidase (FOD), mutant with 372nd lysine of SEQ ID NO: 1 replaced with cysteine (Fusarium oxysporum, UniProt X0D315, K373C). Description: Substrate specificity of mutant FOD, Table 6 (372nd lysine replaced with cysteine). The format is biochemical. To be noted: for Kcat: substrate glycated amino acid. Here is the method:
as §1, §2, §3, §4

For assay [10], the target named is Fusarium oxysporum IFO-9972 fructosyl amino acid oxidase (FOD), mutant FOD-M, 372nd lysine of SEQ ID NO: 1 replaced with methionine, SEQ ID NO: 3 (Fusarium oxysporum, UniProt X0D315, K373M). Description: Substrate specificity of mutant FOD-M, Table 6 (372nd lysine replaced with methionine). The format is biochemical. The settings on record: for Kcat: substrate glycated amino acid. Here is the method: as §1, §2, §3, §4, §5

The target in assay [11] is Fusarium oxysporum IFO-9972 fructosyl amino acid oxidase (FOD), mutant FOD-W, 372nd lysine of SEQ ID NO: 1 replaced with tryptophan, SEQ ID NO: 2 (Fusarium oxysporum, UniProt X0D315, K373W). Nature of the assay: Substrate specificity and Km of mutant FOD-W (372nd lysine replaced with tryptophan). To be noted: substrate glycated amino acid, "below limit" = below the detection limit. It is filed as biochemical. Here is the method: as §1, §2, §3
as §4, with “protein. […]” for “protein.”

For assay [12], the system named is G-I substrate solution (Glovenin I: immunoglobulin preparation). Description: Activity of various proteases on G-I substrate solution (R-FOD assay). It is filed as biochemical. The settings on record: pH 8.0, 37° C. for 30 minutes. Here is the method: (§6) • 1. […] GA % was assayed using a glycated albumin analyzer (GAA-2000, manufactured by ARKRAY, Inc.). • 2. G-II and III substrate solutions, FRA value=48 μmol/L [Globulins Human Cohn Fraction II and III; 16.9 mg/ml (manufactured by Sigma-Aldrich Co.)] • 3. G-IV substrate solution, FRA value=26 μmol/L [Globulins Human Cohn Fraction IV; 6 mg/ml (manufactured by Sigma-Aldrich Co.)] • 4. G-I substrate solution, FRA value=77 μmol/L [Glovenin I: immunoglobulin preparation (manufactured by Takeda Chemical Industries, Ltd.)] • 5. Hb substrate solution: Hemoglobin Human; 55 mg/ml, glycated hemoglobin rate: HbA1c=4.5% [manufactured by Sigma-Aldrich Co., the HbA1c value was determined using a glycated hemoglobin analyzer (Hi-Auto A1C HA-8150, manufactured by ARKRAY, Inc.)]. […]
(§7) 300 μl of the above reaction solution for assaying glycated amino acids was added to a cell and incubated for three minutes at 37° C. […] Absorbances (A0 blank and A1 blank) were measured. The reaction of protease with glycated proteins is indicated by the following absorbance change. ΔA=(A1−A0)−(A1 blank−A0 blank)

Assay [13] addresses T1, HSA substrate solution; Albumin Human (Homo sapiens, UniProt P02768).
T1 construct: purchased Sigma-Aldrich Co
Description: Activity of various proteases on HSA substrate solution (released glycated amino acids/peptides assayed with R-FOD). It is filed as biochemical. The settings on record: pH 8.0; 37° C. for 30 minutes. Here is the method:
as §6, §7

Assay [14] has as its target T2, Hb substrate solution: Hemoglobin Human (Homo sapiens, UniProt P68871+P69905).
T2 construct: purchased Sigma-Aldrich Co
Nature of the assay: Activity of various proteases on Hb substrate solution (R-FOD assay). It is filed as biochemical. The settings on record: pH 8.0; 37° C. for 60 minutes. Here is the method:
as §6, §7

T1 sequence (P02768 25-609): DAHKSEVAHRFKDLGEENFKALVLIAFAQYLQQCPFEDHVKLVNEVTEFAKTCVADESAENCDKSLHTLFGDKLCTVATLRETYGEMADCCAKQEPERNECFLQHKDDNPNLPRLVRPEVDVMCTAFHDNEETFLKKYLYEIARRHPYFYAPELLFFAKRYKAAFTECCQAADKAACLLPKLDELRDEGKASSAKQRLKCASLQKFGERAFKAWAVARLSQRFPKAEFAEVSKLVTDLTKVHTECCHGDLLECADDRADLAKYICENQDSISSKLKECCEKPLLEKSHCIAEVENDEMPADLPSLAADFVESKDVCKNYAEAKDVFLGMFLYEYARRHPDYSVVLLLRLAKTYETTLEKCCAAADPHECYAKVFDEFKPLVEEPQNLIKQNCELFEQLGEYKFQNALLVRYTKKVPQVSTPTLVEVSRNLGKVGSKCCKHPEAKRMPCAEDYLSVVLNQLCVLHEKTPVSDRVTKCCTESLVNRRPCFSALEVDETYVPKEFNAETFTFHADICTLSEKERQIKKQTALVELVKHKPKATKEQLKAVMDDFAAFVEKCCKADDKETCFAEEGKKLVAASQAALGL
T2 sequence (P69905 2-142 limits assumed): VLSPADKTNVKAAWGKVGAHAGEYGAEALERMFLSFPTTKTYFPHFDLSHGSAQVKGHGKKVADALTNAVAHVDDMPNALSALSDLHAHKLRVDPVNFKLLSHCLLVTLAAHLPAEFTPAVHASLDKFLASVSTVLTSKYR
T2 sequence (P68871 2-147 limits assumed): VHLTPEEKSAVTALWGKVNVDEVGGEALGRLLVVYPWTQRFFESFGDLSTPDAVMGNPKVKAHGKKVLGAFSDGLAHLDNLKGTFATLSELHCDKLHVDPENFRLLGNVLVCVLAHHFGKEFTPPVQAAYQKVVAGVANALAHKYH

In the case of `C[N+](C)(C)CC(=O)O` [Betaine], the “Effect of γ-globulin (%)” value in the assay with Protease type-XXIV [1] (additive concentration 0.10%) worked out at 7.6%. Besides, the “effect of inhibiting a protease reaction with globulin” value in the assay with Protease type-XXIV [2] is “effect of inhibiting a protease reaction with globulin”.

Take `O=C(N[C@@H](CCCCNCC1(O)OC[C@@H](O)[C@@H](O)[C@@H]1O)C(=O)O)OCc1ccccc1` (stereo partly drawn) [glycated lysine, α-carbobenzoxy-ε-D-1-deoxy-fructosyl lysine]: the “Kcat reactivity ratio (a)/(b), glycated lysine/glycated valine” value in assay [3] was 1480; in assay [4] it was 1420; in assay [5] it was 27.1; in assay [6], 2010; in [7], 747; in [8] it was 788. In addition, the “Kcat reactivity ratio (a)/(b), glycated lysine/glycated valine” value in [9] stood at 1560; in assay [10], 745. Further, the Kcat in assay [3] was 1790; in assay [4], 1470; in assay [5] it was 14900; in assay [6], 952; in assay [7], 1250; in assay [8], 351. For the same compound, the Kcat in assay [9] is listed as 569; in [10], 853; in [11], 248.

For `CC(C)[C@H](NCC1(O)OC[C@@H](O)[C@@H](O)[C@@H]1O)C(=O)O` (stereo partly drawn) [glycated valine, 1-deoxy-fructosyl valine], the Kcat in [3] is listed as 1.21; in [4] it was 1.04; in [5], 549; in assay [6], 0.47; in assay [7], 1.68; in [8], 0.45. The results for the Kcat in assay [9], in [10] and in [11] were 0.37, 1.14 and “below limit”, respectively.

On to Chymotrypsin, for which the “ΔA Gl” value in [12] was 103 mAbs. For the same compound, in assay [13], the “ΔA HSA” value worked out at 25 mAbs. Moreover, the “ΔA Hb” value in assay [14] stood at 7 mAbs.

On to Concanavalin A, for which, in the assay with Protease type-XXIV [1] (additive concentration 0.21 mg/ml), the “Effect of γ-globulin (%)” value is reported as 14.9%. For the same compound, in the assay with Protease type-XXIV [2], the “effect of inhibiting a protease reaction with globulin” value is on record as “effect of inhibiting a protease reaction with globulin”.

On to Pancreatin, for which the “ΔA Gl” value in [12] is on record as 100 mAbs. Also, the “ΔA HSA” value in assay [13] was 52 mAbs. The “ΔA Hb” value in assay [14] came to 17 mAbs.
